Here are results for 1 compound from patent US9023853B2, “Janus kinase 2 (JAK2) inhibitor for the treatment of lupus” (Cephalon, Inc., priority 2010, dated 2015).

Common to all, as to type: in vivo, mouse
The test system of one assay is CD38. The experiment in a line: CD38 expression by flow cytometry in NZM mice. How it is done:
Antibodies used for flow cytometry consisted of anti-mouse CD138-APC (eBioscience, San Diego, Calif.), anti-mouse CD19-FITC (eBioscience, San Diego, Calif.), anti-mouse CD38-PE (eBioscience, San Diego, Calif.) and anti-mouse CD45R/B220-Cyc (eBioscience, San Diego, Calif.), Rat IgG1-APC isotype control (eBioscience, San Diego, Calif.), Rat IgG2a-PE isotype control (eBioscience, San Diego, Calif.). All samples were analyzed using an Accuri C6 Flow Cytometer. Complete media was used for all experiments involving the ex vivo culture of splenocytes for all Elispot experiments. […]
(§1) Age mated, female, NZM or NZW/LacJ, mice were matured for the study of lupus nephritis for a total of 7 months or 210 days at which time urine was collected for proteinuria detection. Mice with 0.5-1.0 mg/ml of urine protein as determined by an optical density-based total protein precipitation assay and cross-checked for 30-300 mg/dl of protein as determined by a stick assay were considered proteinuria positive and selected for study entry. […] End-stage lupus nephritis was evaluated by histopathology and scored by a board certified pathologist for the assessment of total renal damage in diseased animals using the scoring method described by Smith et al (Smith, Dong et al. 2007). […]

The next assay concerns CXCL9/MIG. Description: Serum CXCL9/MIG in NZM mice. On the procedure: (§2) For the processing of serum samples for cytokine analysis, frozen plasma at −80° C. was thawed on ice, vortexed, and centrifuged for 10 minutes to remove debris and aggregates. A total of 25-50 μL of serum was used for Luminex® assays following the manufacturer's instructions. Ten different mouse cytokines were measured using the mouse cytokine 10-plex bead kit (Invitrogen, Carlsbad, Calif., no. LMC0001). Briefly, filter plates (Millipore, Billerica, Mass., no. MAIPSWU10), were pre-wet with 200 μL of wash solution (kit component) and 25 μL of beads were added per well. […]
as §1

Another assay concerns IL-4. Description: Serum IL-4 in NZM mice. On the procedure:
as §2, §1

The next assay has as its system CCL3/MIP-1α. The experiment in a line: Serum CCL3/MIP-1α in NZM mice. How it is done:
as §2, §1

For the compound `CN1CCN(c2cccc(Nc3nc4c(-c5ccc(S(C)(=O)=O)cc5)cccn4n3)c2)CC1` [COMPOUND A, [8-(4-methanesulfonyl-phenyl)-[1,2,4]triazolo[1,5-a]pyridin-2-yl]-[3-(4-methyl-piperazin-1-yl)-phenyl]-amine], the “decrease in expression of CD38” value with CD38 (COMPOUND A 55 mg/kg) turned out to be 66.6%; in the assay on CD38 (COMPOUND A 100 mg/kg), 74.2%. The entries for the “serum CXCL9/MIG decrease compared to vehicle” value in the assay with CXCL9/MIG (55 mg/kg) and in the assay on CXCL9/MIG (100 mg/kg) were 83.7% and 85.7%, respectively. The “serum IL-4 decrease compared to vehicle” value with IL-4 (55 mg/kg) is given as 98.7%; in the assay on IL-4 (100 mg/kg), 91.8%. In addition, the “serum CCL3/MIP-1α decrease compared to vehicle” value in the assay on CCL3/MIP-1α (55 mg/kg) and in the assay on CCL3/MIP-1α (100 mg/kg) was 94.5% each time.
